In ChEMBL document CHEMBL1134342, “Current and novel approaches to the drug treatment of schizophrenia” (J Med Chem, 2001):
Activity calls are given as the source filed them. The rule behind the calls is not given here.

Experiments:
[1] = biological target: 5-hydroxytryptamine receptor 2A (Homo sapiens, UniProt P28223)
Description: Binding affinity for human 5-hydroxytryptamine 2A receptor

Rodentia sp. [2] = experiment: Extrapyramidal liability by induction of catalepsy after oral administration of […] umol/kg; not effective; format: functional, organism-based
Rodentia sp. [3] = experiment: EPS liability measured by blockade of stereotypy after oral administration of […] umol/kg; not effective; format: functional, organism-based
Rodentia sp. [4] = experiment: Antipsychotic potential by blockade of apomorphine or amphetamine hyperactivity after oral administration; format: functional
Rodentia sp. [5] = experiment: Antipsychotic potential by blockade of apomorphine disruption in PPI after (sc) administration; format: functional; settings: read-out: MED
Rodentia sp. [6] = experiment: Motor impairment by impaired spontaneous locomotor activity after oral administration of […] umol/kg; not effective; format: functional, organism-based
Rodentia sp. [7] = test system: Rodentia sp.
Rodentia sp. [8] = test system: Rodentia sp.; remark: listed apart in the source
Rodentia sp. [9] = test system: Rodentia sp.; remark: listed apart in the source
Rodentia sp. [10] = test system: Rodentia sp.; remark: listed apart in the source
D(4) dopamine receptor = biological target: T1, D(4) dopamine receptor (Homo sapiens, UniProt P21917)
T1 sequence (P21917 whole entry): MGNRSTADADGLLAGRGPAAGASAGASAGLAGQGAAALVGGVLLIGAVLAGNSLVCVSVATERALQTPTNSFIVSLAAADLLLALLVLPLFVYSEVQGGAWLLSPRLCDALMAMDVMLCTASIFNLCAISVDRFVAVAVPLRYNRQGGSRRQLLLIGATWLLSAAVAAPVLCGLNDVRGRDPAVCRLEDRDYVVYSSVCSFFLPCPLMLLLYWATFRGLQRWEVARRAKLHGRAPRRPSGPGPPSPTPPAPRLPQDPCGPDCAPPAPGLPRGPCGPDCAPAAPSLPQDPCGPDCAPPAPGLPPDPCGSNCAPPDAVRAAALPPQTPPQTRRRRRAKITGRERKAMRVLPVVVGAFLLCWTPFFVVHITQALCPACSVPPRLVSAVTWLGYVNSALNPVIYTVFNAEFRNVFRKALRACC

Rodentia sp. [11] = test system: Rodentia sp.; remark: listed apart in the source
[12] = Cmax was determined in rat after oral administration of 3 mg/kg; format: ADME, organism-based; parameters: dose 3 mg/kg, route oral; settings: in vivo
Rattus norvegicus [13] = experiment: Block of mescaline induced head twitch in rat at 6 hour after peroral administration of compound; format: functional; settings: po
Rattus norvegicus [14] = experiment: Block of mescaline induced head twitch in rat at 1 hour after peroral administration of compound; format: functional; settings: po
[15] = Bioavailability in rat; format: ADME, organism-based; settings: in vivo
[16] = Half life period was determined in rat; format: ADME, organism-based; settings: in vivo
[17] = Oral bioavailability was determined in rats and rhesus monkey; format: ADME, organism-based; settings: eutheria, in vivo
Mus musculus [18] = experiment: Antagonizing amphetamine induced hyperlocomotion in mice was determined after […] administration; format: functional
[19] = Brain/Plasma AUC ratio was determined after oral administration of 50 mg/kg; format: ADME, organism-based; parameters: dose 50 mg/kg, route oral; settings: brain and plasma
Mus musculus [20] = experiment: Antagonizing amphetamine induced hyperlocomotion in mice was determined after (ip) administration; format: functional
Rodentia sp. [21] = experiment: Motor impairment by impaired spontaneous locomotor activity after a (sc) administration; format: functional
Rodentia sp. [22] = experiment: Induction of catalepsy was determined after a (sc) administration; format: functional
Rodentia sp. [23] = experiment: Motor impairment by impaired rotarod performance after a (sc) administration; format: functional
Rodentia sp. [24] = experiment: Antipsychotic potential by inhibition of conditioned avoidance responding after a (sc) administration 40 umol/kg; not effective; format: functional, organism-based
Rodentia sp. [25] = experiment: Extrapyramidal liability by induction of catalepsy after a (sc) administration 80 umol/kg; not effective; format: functional, organism-based
Rodentia sp. [26] = experiment: Antipsychotic potential by blockade of apomorphine or amphetamine hyperactivity after a (sc) administration; format: functional
[27] = biological target: Voltage-gated L-type calcium channel (Homo sapiens, UniProt O60840+Q01668+Q13698+Q13936); experiment: Percent inhibition of binding to calcium channel at 10 uM; format: protein assay
[28] = Percent inhibition of binding affinity for sodium channel at 10 uM
[29] = Binding affinity at sodium channels
[30] = biological target: T2, Adrenergic receptor alpha-1 (Homo sapiens, UniProt P35348+P25100+P35368)
T2 sequence (P35348 whole entry): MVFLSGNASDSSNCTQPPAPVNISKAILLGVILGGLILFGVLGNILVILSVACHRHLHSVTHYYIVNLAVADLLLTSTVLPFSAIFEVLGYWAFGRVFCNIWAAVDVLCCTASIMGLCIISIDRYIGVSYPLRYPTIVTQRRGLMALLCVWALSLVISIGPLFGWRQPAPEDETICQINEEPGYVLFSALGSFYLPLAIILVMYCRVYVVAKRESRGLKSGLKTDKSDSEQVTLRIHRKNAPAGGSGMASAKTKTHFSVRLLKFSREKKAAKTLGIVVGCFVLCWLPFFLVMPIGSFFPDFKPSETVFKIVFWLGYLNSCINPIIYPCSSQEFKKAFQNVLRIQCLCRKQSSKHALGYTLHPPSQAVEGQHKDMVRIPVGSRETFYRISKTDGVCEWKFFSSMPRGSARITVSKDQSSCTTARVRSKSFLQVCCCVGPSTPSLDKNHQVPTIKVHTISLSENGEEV
T2 sequence (P25100 whole entry): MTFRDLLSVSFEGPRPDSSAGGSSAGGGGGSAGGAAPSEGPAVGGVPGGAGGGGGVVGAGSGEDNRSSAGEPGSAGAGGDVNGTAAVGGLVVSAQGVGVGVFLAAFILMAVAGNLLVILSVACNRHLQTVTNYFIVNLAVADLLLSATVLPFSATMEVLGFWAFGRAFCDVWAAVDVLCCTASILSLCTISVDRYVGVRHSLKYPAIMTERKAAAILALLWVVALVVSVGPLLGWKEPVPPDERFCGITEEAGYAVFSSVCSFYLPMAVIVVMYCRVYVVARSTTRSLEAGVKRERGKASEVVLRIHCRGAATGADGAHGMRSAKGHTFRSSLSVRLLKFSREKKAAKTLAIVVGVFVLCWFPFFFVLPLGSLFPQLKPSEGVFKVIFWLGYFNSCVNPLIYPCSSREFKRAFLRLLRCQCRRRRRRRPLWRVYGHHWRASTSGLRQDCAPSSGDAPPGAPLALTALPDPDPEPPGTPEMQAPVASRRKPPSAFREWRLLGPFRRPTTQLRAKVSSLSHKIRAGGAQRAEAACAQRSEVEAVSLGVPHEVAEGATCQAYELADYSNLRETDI
T2 sequence (P35368 whole entry): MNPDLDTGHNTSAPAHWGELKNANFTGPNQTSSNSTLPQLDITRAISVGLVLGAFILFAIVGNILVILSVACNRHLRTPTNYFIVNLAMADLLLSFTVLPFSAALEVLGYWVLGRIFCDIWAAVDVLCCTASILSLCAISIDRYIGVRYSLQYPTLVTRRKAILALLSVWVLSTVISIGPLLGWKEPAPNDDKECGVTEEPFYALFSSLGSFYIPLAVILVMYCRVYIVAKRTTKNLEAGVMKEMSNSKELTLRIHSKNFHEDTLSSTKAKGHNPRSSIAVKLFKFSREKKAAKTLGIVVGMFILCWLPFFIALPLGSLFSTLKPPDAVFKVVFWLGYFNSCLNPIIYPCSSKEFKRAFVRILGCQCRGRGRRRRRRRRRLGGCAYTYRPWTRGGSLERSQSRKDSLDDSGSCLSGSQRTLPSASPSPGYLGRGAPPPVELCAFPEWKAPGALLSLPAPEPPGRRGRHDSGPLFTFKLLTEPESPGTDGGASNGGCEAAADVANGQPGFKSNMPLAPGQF
Description: Binding affinity towards human alpha-1 adrenergic receptor

[31] = biological target: T3, 5-hydroxytryptamine receptor 1A (Homo sapiens, UniProt P08908); experiment: Binding affinity towards human 5-hydroxytryptamine 1 receptor
T3 sequence (P08908 whole entry): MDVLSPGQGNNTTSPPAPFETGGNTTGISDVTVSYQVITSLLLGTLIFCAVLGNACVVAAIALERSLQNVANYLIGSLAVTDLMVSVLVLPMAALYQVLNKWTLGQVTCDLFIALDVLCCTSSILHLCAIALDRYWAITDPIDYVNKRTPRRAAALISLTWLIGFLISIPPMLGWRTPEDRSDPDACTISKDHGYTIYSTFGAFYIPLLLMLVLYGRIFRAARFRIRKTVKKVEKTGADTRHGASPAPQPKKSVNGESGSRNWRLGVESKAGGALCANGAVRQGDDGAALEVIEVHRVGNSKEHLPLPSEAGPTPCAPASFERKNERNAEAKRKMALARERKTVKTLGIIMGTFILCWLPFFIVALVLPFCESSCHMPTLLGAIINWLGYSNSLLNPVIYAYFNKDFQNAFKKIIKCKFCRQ

[32] = biological target: T4, Muscarinic acetylcholine receptor M1 (Homo sapiens, UniProt P11229)
T4 sequence (P11229 whole entry): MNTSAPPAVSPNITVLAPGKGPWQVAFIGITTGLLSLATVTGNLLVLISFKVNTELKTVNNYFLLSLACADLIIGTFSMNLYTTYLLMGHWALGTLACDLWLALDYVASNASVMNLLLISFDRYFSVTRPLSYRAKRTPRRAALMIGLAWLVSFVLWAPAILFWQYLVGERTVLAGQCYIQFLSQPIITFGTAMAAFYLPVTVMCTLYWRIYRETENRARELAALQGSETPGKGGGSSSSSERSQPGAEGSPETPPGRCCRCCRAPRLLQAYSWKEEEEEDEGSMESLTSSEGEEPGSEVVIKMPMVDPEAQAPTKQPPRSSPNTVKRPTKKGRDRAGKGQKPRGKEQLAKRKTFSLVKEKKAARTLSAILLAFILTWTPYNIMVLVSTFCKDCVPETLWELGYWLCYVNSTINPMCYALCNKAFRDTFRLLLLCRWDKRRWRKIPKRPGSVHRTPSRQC
Description: Binding affinity towards human M1 receptor.

[33] = Plasma half life period was determined in human; format: ADME, organism-based

5-hydroxytryptamine receptor 2A, sequence (P28223 whole entry): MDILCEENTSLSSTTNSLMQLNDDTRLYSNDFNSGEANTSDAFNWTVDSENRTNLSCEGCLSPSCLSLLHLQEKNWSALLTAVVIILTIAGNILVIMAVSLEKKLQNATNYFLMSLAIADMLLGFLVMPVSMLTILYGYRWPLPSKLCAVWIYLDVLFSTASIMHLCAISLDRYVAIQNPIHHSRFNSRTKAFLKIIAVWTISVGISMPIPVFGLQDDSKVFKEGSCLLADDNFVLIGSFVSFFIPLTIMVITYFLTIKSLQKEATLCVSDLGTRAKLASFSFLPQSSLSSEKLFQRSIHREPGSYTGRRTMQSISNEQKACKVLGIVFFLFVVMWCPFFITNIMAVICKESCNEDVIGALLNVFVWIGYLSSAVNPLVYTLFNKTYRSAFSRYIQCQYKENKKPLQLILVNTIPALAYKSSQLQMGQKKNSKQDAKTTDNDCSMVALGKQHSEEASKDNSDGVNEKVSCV

O=C(c1ccc(F)cc1)C1CCN(CCCCc2ccccc2)CC1
Ki [1]: 5.3 nM

O=C(c1ccccc1)C1CCN(CCc2ccccc2)CC1
Ki [1]: 9.6 nM

Fc1ccc(OC[C@@H]2CC[C@H]3CN(c4ncc(F)cn4)CCN3C2)cc1
NE (Rodentia sp. [2]): inactive | NE (Rodentia sp. [3]): inactive | ED50 (Rodentia sp. [4]): 13 mg/kg | minimal effective dose (Rodentia sp. [5]): 18 mg/kg | NE (Rodentia sp. [6]): inactive

NS(=O)(=O)c1ccc(N2CCN(CC[C@@H]3OCCc4ccccc43)CC2)cc1 [SONEPIPRAZOLE]
NE (Rodentia sp. [7]): inactive | NE (Rodentia sp. [8]): inactive | NE (Rodentia sp. [9]): inactive | NE (Rodentia sp. [10]): inactive | minimal effective dose (Rodentia sp. [5]): 30 mg/kg | Ki (D(4) dopamine receptor): 6.8 nM | NE (Rodentia sp. [11]): inactive

c1ccc(N2CCN(Cc3c[nH]c4ncccc34)CC2)cc1
Cmax [12]: 18 ng/mL | Ki (D(4) dopamine receptor): 1.9 nM

O=S1(=O)c2cccc3cccc(c23)N1CCCN1CCN(c2ccc(F)cc2)CC1 [FANANSERIN]
ED50 (Rattus norvegicus [13]): 2.4 mg/kg | ED50 (Rattus norvegicus [14]): 0.99 mg/kg | Ki (D(4) dopamine receptor): 2.9 nM

Cc1c(C2CCN(CCc3ccccc3)CC2)noc1-c1ccc(Cl)cc1
bioavailability [15]: 38% | half-life [16]: 2 h

OC(c1ccc(F)cc1)C1CCN(CCCCc2ccccc2)CC1 (configuration not stated)
Ki [1]: 126 nM

COc1cccc([C@H](O)C2CCN(CCc3ccc(F)cc3)CC2)c1O
bioavailability [17]: < 3% | ED50 (Mus musculus [18]): 0.62 mg/kg | Kp [19]: < 0.13 | ED50 (Mus musculus [20]): 0.08 mg/kg

c1ccc2c(c1)CC(CN1CCN(c3ccc4c(c3)OCCO4)CC1)C2
ED50 (Rodentia sp. [21]): 40 mg/kg | ED50 (Rodentia sp. [22]): 80 mg/kg | ED50 (Rodentia sp. [23]): 66 mg/kg | NE (Rodentia sp. [24]): inactive | NE (Rodentia sp. [25]): inactive | ED50 (Rodentia sp. [26]): 9 mg/kg

Clc1ccccc1CCN1CCN(c2[nH]nc3c2CCc2ccccc2-3)CC1
bioavailability [15]: 31% | inhibition at 10 µM [27]: 58% | half-life [16]: 1 h | Ki (D(4) dopamine receptor): 4.3 nM | inhibition [28]: 33%

Cc1c(-c2ccccc2)[nH]c(=O)n1C1CCN(Cc2cccc(C#N)c2)CC1
bioavailability [15]: 69% | half-life [16]: 1.1 h

c1ccc(N2CCN(Cc3c[nH]c4ccccc34)CC2)cc1
IC50 [29]: > 10000 nM

OC(c1ccccc1)C1CCN(CCc2ccccc2)CC1 (configuration not stated) [GLEMANSERIN]
Ki [1]: 2.5 nM

O=C(c1ccc(F)cc1)C1CCN(CCn2c(=O)[nH]c3ccccc3c2=O)CC1 [KETANSERIN]
Ki (D(4) dopamine receptor): 3.5 nM

O=c1ccc2ccc(NCCNc3ccccc3)cc2o1
Ki (D(4) dopamine receptor): 5.8 nM

O=C1Cc2cc(CCN3CCN(c4nsc5ccccc45)CC3)c(Cl)cc2N1 [ZIPRASIDONE]
Ki [30]: 1.9 nM | Ki [31]: 37 nM | Ki [32]: > 10000 nM

COc1cccc([C@H](O)C2CCN(CCc3ccc(F)cc3)CC2)c1OC [VOLINANSERIN]
half-life [33]: 6.6 h
